Here are results for 85 compounds from ChEMBL document CHEMBL3882725, “Indazole derivatives as JNK inhibitors and compositions and methods related thereto” (2002).

Each structure is given as a SMILES string.

Chain of Mitogen-activated protein kinase 9 (P45984 whole entry, the tested form may be a part): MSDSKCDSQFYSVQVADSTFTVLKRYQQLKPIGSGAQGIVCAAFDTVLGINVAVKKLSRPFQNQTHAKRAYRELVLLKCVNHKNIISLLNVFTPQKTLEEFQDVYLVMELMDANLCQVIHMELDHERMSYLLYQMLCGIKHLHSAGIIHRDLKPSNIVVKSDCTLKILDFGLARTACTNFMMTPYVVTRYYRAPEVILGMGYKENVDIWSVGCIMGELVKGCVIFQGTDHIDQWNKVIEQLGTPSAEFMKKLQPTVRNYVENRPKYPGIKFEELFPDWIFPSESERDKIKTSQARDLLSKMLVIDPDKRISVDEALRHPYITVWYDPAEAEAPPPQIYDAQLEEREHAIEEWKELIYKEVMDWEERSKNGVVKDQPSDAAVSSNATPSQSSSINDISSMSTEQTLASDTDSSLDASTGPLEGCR

This assay concerns the target Mitogen-activated protein kinase 9 (Homo sapiens, UniProt P45984). Kind of assay: Inhibition of His6-tagged JNK2 (unknown origin) assessed as reduction in c-Jun phosphorylation using GST-c-Jun (1 to 79 residues) and [gamma32P]ATP incubated for 1 hr by scintillation counting assay.
Take `O=C(Nc1ccncc1)c1cccc(-c2n[nH]c3ccc(-c4nc[nH]n4)cc23)c1`: the IC50 was 0.5 to 10 µM.

As to `CN(C)Cc1nc(-c2ccc3[nH]nc(-c4cccc(C(=O)NC(C)(C)C)c4)c3c2)n[nH]1`, the concentration for half-maximal inhibition (IC50) was 0.5 to 10 µM.

On to `O=C(NCCc1ccccc1)c1cccc(-c2n[nH]c3ccc(-c4nc[nH]n4)cc23)c1`, for which the IC50 lay within 0.5 to 10 µM.

Turning to `c1cncc(COc2cccc(-c3n[nH]c4ccc(-c5nc[nH]n5)cc34)c2)c1`, the IC50 is 1 to 10 µM.

Consider `CN(C)Cc1nc(-c2ccc3[nH]nc(-c4cccc(NC(=O)[C@H](O)c5ccccc5)c4)c3c2)n[nH]1`, for which the IC50 was 0.5 to 10 µM.

On to `O=C(NC1CCN(Cc2ccccc2)CC1)c1cccc(-c2n[nH]c3ccc(-c4nc[nH]n4)cc23)c1`, for which the IC50 was in the range of 0.5 to 10 µM.

Take `CN(C)Cc1nc(-c2ccc3[nH]nc(-c4cccc(C(=O)N[C@@H]5CCc6ccccc65)c4)c3c2)n[nH]1`: the IC50 fell in the range of 0.5 to 10 µM.

Turning to `O=C(NCCN1CCOCC1)c1cccc(-c2n[nH]c3ccc(-c4nc[nH]n4)cc23)c1`, the IC50 fell in the range of 0.5 to 10 µM.

As to `NC(=O)c1ccc2[nH]nc(-c3cccc(NC(=O)c4cccc(O)c4)c3)c2c1`, the IC50 lay within 1 to 10 µM.

Regarding `NC(=O)c1ccc2[nH]nc(-c3ccc4c(c3)OCCO4)c2c1`, the IC50 lay in the range of 1 to 10 µM.

In the case of `NC(=O)c1ccc2[nH]nc(-c3cccc(OCCN4CCCCC4)c3)c2c1`, the IC50 lay in the range of 1 to 10 µM.

Consider `O=C(Nc1cccc2c1CCCC2)c1cccc(-c2n[nH]c3ccc(-c4nc[nH]n4)cc23)c1`, for which the IC50 fell in the range of 0.5 to 10 µM.

Turning to `O=C(O)c1cccc(-c2n[nH]c3ccc(-c4nc[nH]n4)cc23)c1`, the IC50 is 1 to 10 µM.

On to `COc1ccc2cc(-c3n[nH]c4ccc(-c5nc[nH]n5)cc34)ccc2c1`, for which the IC50 was 1 to 10 µM.

For the compound `c1ccc2ncc(-c3n[nH]c4ccc(-c5nc[nH]n5)cc34)cc2c1`, the IC50 lay within 1 to 10 µM.

In the case of `c1nc(-c2ccc3[nH]nc(-c4ccc5c(c4)OCCO5)c3c2)n[nH]1`, the IC50 was in the range of 1 to 10 µM.

Take `COc1ccc(C(=O)Nc2cccc(-c3n[nH]c4ccc(-c5nc[nH]n5)cc34)c2)cc1`: the IC50 was 0.5 to 10 µM.

On to `O=C(NCCC1CCN(Cc2ccccc2)CC1)c1cccc(-c2n[nH]c3ccc(-c4nc[nH]n4)cc23)c1`, for which the IC50 lay within 0.5 to 10 µM.

As for `Cc1ccc(C(=O)Nc2cccc(-c3n[nH]c4ccc(-c5nc[nH]n5)cc34)c2)cc1`, the IC50 lay within 1 to 10 µM.

For the compound `CC(C(=O)Nc1cccc(-c2n[nH]c3ccc(C(N)=O)cc23)c1)c1ccccc1` (stereo not given), the IC50 was in the range of 1 to 10 µM.

Take `NC(=O)c1ccc2[nH]nc(-c3cccc(NC(=O)Cc4ccc(C(F)(F)F)cc4)c3)c2c1`: the IC50 is 1 to 10 µM.

Regarding `NC(=O)c1ccc2[nH]nc(-c3cccc(NC(=O)Cc4ccccc4)c3)c2c1`, the IC50 lay within 0.5 to 10 µM.

Take `CN(C)Cc1n[nH]c(-c2ccc3[nH]nc(-c4cccc(C(=O)NC5CC5)c4)c3c2)n1`: the IC50 was in the range of 0.5 to 10 µM.

For `O=C(NC1CCC1)c1cccc(-c2n[nH]c3ccc(-c4nc[nH]n4)cc23)c1`, the IC50 is 0.5 to 10 µM.

For `CN(C)c1ccc(CC(=O)Nc2cccc(-c3n[nH]c4ccc(C(N)=O)cc34)c2)cc1`, the IC50 is 1 to 10 µM.

As to `CN(C)Cc1n[nH]c(-c2ccc3[nH]nc(-c4cccc(C(=O)NC5CCC5)c4)c3c2)n1`, the IC50 lay within 0.5 to 10 µM.

In the case of `CN(C)Cc1n[nH]c(-c2ccc3[nH]nc(-c4cccc(C(=O)NCCN5CCCCC5)c4)c3c2)n1`, the IC50 lay within 0.5 to 10 µM.

As to `O=C(Nc1cccc(-c2n[nH]c3ccc(-c4nc[nH]n4)cc23)c1)c1ccccc1`, the IC50 was 0.5 to 10 µM.

Regarding `O=C(Nc1ccc(-c2n[nH]c3ccc(-c4nc[nH]n4)cc23)cc1)c1cccnc1`, the IC50 was 1 to 10 µM.

Consider `CN(C)CC(=O)Nc1ccc(-c2n[nH]c3ccc(-c4nc[nH]n4)cc23)cc1`, for which the IC50 was in the range of 1 to 10 µM.

Take `O=C(Nc1cccc(-c2n[nH]c3ccc(-c4nc[nH]n4)cc23)c1)c1ccc(Cl)cc1Cl`: the IC50 lay within 1 to 10 µM.

In the case of `NC(=O)c1ccc2[nH]nc(-c3cccc(NC(=O)CCc4ccc(F)cc4)c3)c2c1`, the IC50 was 1 to 10 µM.

For the compound `NC(=O)c1ccc2[nH]nc(-c3cccc(NC(=O)Cc4ccc(Cl)cc4Cl)c3)c2c1`, the IC50 was in the range of 1 to 10 µM.

As for `CN(C)Cc1nc(-c2ccc3[nH]nc(-c4cccc(C(=O)NCc5ccc(F)cc5)c4)c3c2)n[nH]1`, the 50% inhibitory concentration (IC50) lay within 0.5 to 10 µM.

As to `O=c1[nH]c(-c2ccc3[nH]nc(-c4ccc(F)cc4)c3c2)no1`, the IC50 was 0.5 to 10 µM.

With `COCC(=O)Nc1ccc(-c2n[nH]c3ccc(-c4nc[nH]n4)cc23)cc1`, the IC50 lay within 1 to 10 µM.

Consider `COc1ccc(CC(=O)Nc2cccc(-c3n[nH]c4ccc(C(N)=O)cc34)c2)cc1`, for which the IC50 lay within 0.5 to 10 µM.

For `O=C(N[C@H]1C[C@@H]1c1ccccc1)c1cccc(-c2n[nH]c3ccc(-c4nc[nH]n4)cc23)c1`, the IC50 fell in the range of 0.5 to 10 µM.

Consider `CN(C)Cc1nc(-c2ccc3[nH]nc(-c4ccc5c(c4)OCO5)c3c2)n[nH]1`, for which the IC50 is 0.5 to 10 µM.

Regarding `NC(=O)c1ccc2[nH]nc(-c3cccc(NC(=O)Cc4ccc(F)cc4)c3)c2c1`, the 50% inhibitory concentration (IC50) was in the range of 0.5 to 10 µM.

Consider `O=C(NC1CCCC1)c1cccc(-c2n[nH]c3ccc(-c4nc[nH]n4)cc23)c1`, for which the IC50 lay in the range of 0.5 to 10 µM.

For the compound `NC(=O)c1ccc2[nH]nc(-c3cccc(NC(=O)C4CC4)c3)c2c1`, the IC50 was in the range of 1 to 10 µM.

Take `O=C(Nc1ccc(-c2n[nH]c3ccc(-c4nn[nH]n4)cc23)cc1)c1cccnc1`: the IC50 was in the range of 0.5 to 10 µM.

On to `NC(=O)c1ccc2[nH]nc(-c3cccc(NC(=O)Cc4ccncc4)c3)c2c1`, for which the half-maximal inhibitory concentration (IC50) is 0.5 to 10 µM.

Regarding `COCCOc1cccc(-c2n[nH]c3ccc(-c4nc[nH]n4)cc23)c1`, the IC50 fell in the range of 1 to 10 µM.

Turning to `NC(=O)c1ccc2[nH]nc(-c3cccc(NC(=O)Cc4ccc(F)c(F)c4)c3)c2c1`, the IC50 was in the range of 1 to 10 µM.

With `CNCc1nc(-c2ccc3[nH]nc(-c4ccc(F)cc4)c3c2)n[nH]1`, the IC50 fell in the range of 0.5 to 10 µM.

As to `NC(=O)c1ccc2[nH]nc(-c3cccc(NC(=O)Cc4ccccn4)c3)c2c1`, the IC50 fell in the range of 1 to 10 µM.

Consider `Fc1ccc(-c2n[nH]c3ccc(-c4nnc(CN5CCOCC5)o4)cc23)cc1`, for which the IC50 fell in the range of 1 to 10 µM.

In the case of `O=C(Nc1ccccc1)c1cccc(-c2n[nH]c3ccc(-c4nc[nH]n4)cc23)c1`, the IC50 was 0.5 to 10 µM.

For `COc1ccc(-c2n[nH]c3ccc(-c4n[nH]c(CN(C)C)n4)cc23)cc1`, the IC50 was 0.5 to 10 µM.

As for `NC(=O)c1ccc2[nH]nc(-c3cccc(NC(=O)Cc4ccccc4F)c3)c2c1`, the concentration for half-maximal inhibition (IC50) is 0.5 to 10 µM.

As for `O=C(Nc1ccc(F)cc1)c1cccc(-c2n[nH]c3ccc(-c4nc[nH]n4)cc23)c1`, the IC50 lay within 0.5 to 10 µM.

`O=C(CN1CCOCC1)Nc1cccc(-c2n[nH]c3ccc(-c4nc[nH]n4)cc23)c1`: the IC50 lay within 0.5 to 10 µM.

For `COc1ccc2cc(-c3n[nH]c4ccc(C(N)=O)cc34)ccc2c1`, the IC50 was in the range of 1 to 10 µM.

With `CC(C)CC(=O)Nc1cccc(-c2n[nH]c3ccc(-c4nc[nH]n4)cc23)c1`, the IC50 lay in the range of 0.5 to 10 µM.

Consider `CN(C)Cc1n[nH]c(-c2ccc3[nH]nc(-c4cccc(C(=O)NC5Cc6ccccc6C5)c4)c3c2)n1`, for which the IC50 is 0.5 to 10 µM.

Turning to `CN(C)Cc1n[nH]c(-c2ccc3[nH]nc(-c4cc5ccccc5o4)c3c2)n1`, the IC50 is 1 to 10 µM.

In the case of `O=C(NC1CCCCC1)c1cccc(-c2n[nH]c3ccc(-c4nc[nH]n4)cc23)c1`, the IC50 was in the range of 0.5 to 10 µM.

For `NC(=O)c1ccc2[nH]nc(-c3cccc(NC(=O)Cc4ccc(F)cc4Cl)c3)c2c1`, the IC50 was 1 to 10 µM.

Regarding `CC(C)C(=O)Nc1cccc(-c2n[nH]c3ccc(-c4nc[nH]n4)cc23)c1`, the IC50 lay within 0.5 to 10 µM.

With `NC(=O)c1ccc2[nH]nc(-c3ccc4c(c3)CCO4)c2c1`, the IC50 is 1 to 10 µM.

`O=C(Nc1cccnc1)c1cccc(-c2n[nH]c3ccc(-c4nc[nH]n4)cc23)c1`: the IC50 fell in the range of 0.5 to 10 µM.

`CN(C)Cc1n[nH]c(-c2ccc3[nH]nc(-c4cccc(C(=O)Nc5ccccc5)c4)c3c2)n1`: the IC50 lay in the range of 0.5 to 10 µM.

`CC(c1nc(-c2ccc3[nH]nc(-c4ccc(F)cc4)c3c2)n[nH]1)N(C)C` (stereo not given): the IC50 was in the range of 0.5 to 10 µM.

Regarding `NC(=O)c1ccc2[nH]nc(-c3cccc(NC(=O)Cc4ccc(Cl)cc4)c3)c2c1`, the IC50 fell in the range of 1 to 10 µM.

Consider `O=C(NC1CC1)c1cccc(-c2n[nH]c3ccc(-c4nc[nH]n4)cc23)c1`, for which the IC50 was in the range of 0.5 to 10 µM.

Regarding `Cc1ncc(CC(=O)Nc2cccc(-c3n[nH]c4ccc(C(N)=O)cc34)c2)s1`, the IC50 fell in the range of 1 to 10 µM.

As for `CN(C)Cc1n[nH]c(-c2ccc3[nH]nc(-c4cccc(C(=O)Nc5ccc(F)cc5)c4)c3c2)n1`, the IC50 fell in the range of 0.5 to 10 µM.

As for `COCCNC(=O)c1cccc(-c2n[nH]c3ccc(-c4nc[nH]n4)cc23)c1`, the IC50 is 0.5 to 10 µM.

On to `Fc1ccc(-c2n[nH]c3ccc(-c4n[nH]c(C5CCCN5)n4)cc23)cc1` (stereo not given), for which the IC50 lay in the range of 0.5 to 10 µM.

Turning to `c1nc(-c2ccc3[nH]nc(-c4ccc5c(c4)CCO5)c3c2)n[nH]1`, the IC50 was in the range of 1 to 10 µM.

For `CS(=O)(=O)Nc1ccc(-c2n[nH]c3ccc(-c4nc[nH]n4)cc23)cc1`, the IC50 was in the range of 1 to 10 µM.

With `O=C(Nc1cccc(-c2n[nH]c3ccc(-c4nc[nH]n4)cc23)c1)c1ccc(Cl)cc1`, the IC50 was in the range of 1 to 10 µM.

As to `CN(C)Cc1nc(-c2ccc3[nH]nc(-c4cccc(NC(=O)CC(C)(C)C)c4)c3c2)n[nH]1`, the IC50 was 0.5 to 10 µM.

On to `CN(C)Cc1nc(-c2ccc3[nH]nc(-c4cccc(NC(=O)c5cccnc5)c4)c3c2)n[nH]1`, for which the IC50 lay in the range of 0.5 to 10 µM.

Turning to `CC(C)CC(=O)Nc1cccc(-c2n[nH]c3ccc(-c4n[nH]c(CN(C)C)n4)cc23)c1`, the IC50 lay within 0.5 to 10 µM.

`O=C(NC1CCN(Cc2ccccc2)C1)c1cccc(-c2n[nH]c3ccc(-c4nc[nH]n4)cc23)c1` (stereo not given): the IC50 lay in the range of 0.5 to 10 µM.

`NC(=O)c1ccc2[nH]nc(-c3cccc(NC(=O)CCc4ccccc4)c3)c2c1`: the IC50 lay within 1 to 10 µM.

With `NC(=O)c1ccc2[nH]nc(-c3cccc(NC(=O)Cc4ccsc4)c3)c2c1`, the IC50 fell in the range of 1 to 10 µM.

Take `NC(=O)c1ccc2[nH]nc(-c3cccc(C(=O)NCCN4CCCCC4)c3)c2c1`: the IC50 was in the range of 1 to 10 µM.

Regarding `NC(=O)c1ccc2[nH]nc(-c3cccc(NC(=O)c4cccs4)c3)c2c1`, the IC50 was 1 to 10 µM.

Regarding `O=C(NCCN1CCCCC1)c1cccc(-c2n[nH]c3ccc(-c4nc[nH]n4)cc23)c1`, the IC50 was 0.5 to 10 µM.

As for `NC(=O)c1ccc2[nH]nc(-c3cccc(NC(=O)C4CCOC4)c3)c2c1` (stereo not given), the IC50 was 0.5 to 10 µM.

Consider `CC(C)NC(=O)c1cccc(-c2n[nH]c3ccc(-c4nc[nH]n4)cc23)c1`, for which the half-maximal inhibitory concentration (IC50) was in the range of 0.5 to 10 µM.
